Source: the kinase profiling compilation of Christmann-Franck et al. (2016)

Legend:
Experiment in all cases: KINOMEscan competition binding
Conditions in all cases: compound 10.0 µM
TBK1 (human) = TBK1 (human) (UniProt Q9UHD2)
CDC42BPA (human) = CDC42BPA (human) (UniProt Q5VT25)
LATS1 (human) = LATS1 (human) (UniProt O95835)
PIK3C2B (human) = PIK3C2B (human) (UniProt O00750)
LATS2 (human) = LATS2 (human) (UniProt Q9NRM7)
RPS6KA6 KD2 (human) = RPS6KA6 KD2 (human) (UniProt Q9UK32)
EPHA5 (human) = EPHA5 (human) (UniProt P54756)
Sequence of EPHA5 (human) (P54756 whole entry, looked up): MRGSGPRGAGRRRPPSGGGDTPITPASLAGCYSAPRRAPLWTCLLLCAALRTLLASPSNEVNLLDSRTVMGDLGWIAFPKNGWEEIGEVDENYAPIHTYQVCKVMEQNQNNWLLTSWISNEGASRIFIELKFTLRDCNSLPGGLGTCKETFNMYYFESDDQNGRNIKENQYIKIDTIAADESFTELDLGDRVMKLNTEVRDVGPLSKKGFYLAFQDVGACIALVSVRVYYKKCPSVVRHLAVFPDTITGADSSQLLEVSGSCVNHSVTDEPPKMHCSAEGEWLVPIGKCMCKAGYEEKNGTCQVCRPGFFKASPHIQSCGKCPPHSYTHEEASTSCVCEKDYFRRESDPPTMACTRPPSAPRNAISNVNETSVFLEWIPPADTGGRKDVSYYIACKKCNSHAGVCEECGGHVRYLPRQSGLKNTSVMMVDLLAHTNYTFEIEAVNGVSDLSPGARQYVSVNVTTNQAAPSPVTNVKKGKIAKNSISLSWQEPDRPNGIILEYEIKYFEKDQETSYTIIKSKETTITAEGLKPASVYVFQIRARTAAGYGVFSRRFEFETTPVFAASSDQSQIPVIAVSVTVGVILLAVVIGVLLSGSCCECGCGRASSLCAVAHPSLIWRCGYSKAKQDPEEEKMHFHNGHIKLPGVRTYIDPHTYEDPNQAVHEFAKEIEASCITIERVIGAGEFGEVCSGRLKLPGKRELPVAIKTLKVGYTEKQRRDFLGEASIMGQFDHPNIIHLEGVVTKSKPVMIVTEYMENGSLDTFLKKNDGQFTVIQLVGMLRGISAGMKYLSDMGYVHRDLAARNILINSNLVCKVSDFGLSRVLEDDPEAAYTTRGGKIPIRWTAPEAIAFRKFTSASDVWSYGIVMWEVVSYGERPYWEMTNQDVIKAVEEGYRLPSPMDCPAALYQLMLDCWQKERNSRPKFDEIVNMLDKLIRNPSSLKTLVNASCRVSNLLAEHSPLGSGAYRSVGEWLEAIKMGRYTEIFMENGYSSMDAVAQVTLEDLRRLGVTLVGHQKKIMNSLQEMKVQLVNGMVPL

GRK7 (human) = GRK7 (human) (UniProt Q8WTQ7)
DYRK2 (human) = DYRK2 (human) (UniProt Q92630)
EPHA2 (human) = EPHA2 (human) (UniProt P29317)
EPHA1 (human) = EPHA1 (human) (UniProt P21709)
BRAF (human) = BRAF (human) (UniProt P15056)
RPS6KA4 KD1 (human) = RPS6KA4 KD1 (human) (UniProt O75676)
EPHA7 (human) = EPHA7 (human) (UniProt Q15375)
PDGFRB (human) = PDGFRB (human) (UniProt P09619)
Sequence of PDGFRB (human) (P09619 whole entry, looked up): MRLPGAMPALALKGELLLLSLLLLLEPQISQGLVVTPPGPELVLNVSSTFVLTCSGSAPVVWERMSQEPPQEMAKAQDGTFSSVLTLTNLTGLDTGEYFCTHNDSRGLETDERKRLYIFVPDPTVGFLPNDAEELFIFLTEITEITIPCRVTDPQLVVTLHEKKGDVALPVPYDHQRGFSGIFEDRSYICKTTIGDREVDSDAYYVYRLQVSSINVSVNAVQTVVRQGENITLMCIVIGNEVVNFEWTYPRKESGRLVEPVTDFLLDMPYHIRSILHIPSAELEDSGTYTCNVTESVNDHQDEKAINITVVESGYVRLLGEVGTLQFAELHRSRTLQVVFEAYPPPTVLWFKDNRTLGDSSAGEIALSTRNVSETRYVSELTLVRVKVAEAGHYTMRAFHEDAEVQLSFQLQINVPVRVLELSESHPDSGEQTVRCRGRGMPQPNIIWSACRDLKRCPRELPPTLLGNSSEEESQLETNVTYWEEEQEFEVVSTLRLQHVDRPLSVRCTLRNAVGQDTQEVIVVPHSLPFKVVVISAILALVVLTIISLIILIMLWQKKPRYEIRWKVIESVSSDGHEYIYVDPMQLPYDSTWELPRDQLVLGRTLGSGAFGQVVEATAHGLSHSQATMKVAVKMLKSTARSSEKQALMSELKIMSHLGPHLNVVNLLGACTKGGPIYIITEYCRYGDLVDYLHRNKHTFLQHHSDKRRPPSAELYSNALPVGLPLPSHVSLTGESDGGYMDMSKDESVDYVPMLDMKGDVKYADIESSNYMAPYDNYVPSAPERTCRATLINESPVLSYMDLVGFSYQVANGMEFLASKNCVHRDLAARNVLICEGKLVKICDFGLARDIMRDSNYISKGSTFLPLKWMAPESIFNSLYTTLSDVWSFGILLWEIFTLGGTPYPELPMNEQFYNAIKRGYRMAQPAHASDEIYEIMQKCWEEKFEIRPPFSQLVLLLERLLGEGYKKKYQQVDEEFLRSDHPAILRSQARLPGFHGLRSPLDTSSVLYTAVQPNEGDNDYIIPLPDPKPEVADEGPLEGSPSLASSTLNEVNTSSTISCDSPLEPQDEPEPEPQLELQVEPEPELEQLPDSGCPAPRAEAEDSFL

PKMYT1 (human) = PKMYT1 (human) (UniProt Q99640)
AKT3 (human) = AKT3 (human) (UniProt Q9Y243)
Sequence of AKT3 (human) (Q9Y243 whole entry, looked up): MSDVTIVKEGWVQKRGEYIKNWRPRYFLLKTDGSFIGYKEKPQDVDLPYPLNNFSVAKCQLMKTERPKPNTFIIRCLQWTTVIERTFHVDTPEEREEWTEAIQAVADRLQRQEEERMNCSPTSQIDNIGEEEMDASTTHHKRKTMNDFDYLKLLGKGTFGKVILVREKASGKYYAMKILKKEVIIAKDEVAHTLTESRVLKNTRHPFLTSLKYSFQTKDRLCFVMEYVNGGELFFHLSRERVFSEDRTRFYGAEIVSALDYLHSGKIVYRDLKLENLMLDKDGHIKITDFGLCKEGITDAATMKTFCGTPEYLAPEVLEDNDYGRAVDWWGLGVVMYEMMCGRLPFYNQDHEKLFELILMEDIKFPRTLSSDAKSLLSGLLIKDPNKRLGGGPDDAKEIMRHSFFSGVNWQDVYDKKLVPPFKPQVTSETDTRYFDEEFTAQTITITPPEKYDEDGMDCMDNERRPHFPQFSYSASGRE

STK32C (human) = STK32C (human) (UniProt Q86UX6)
MAP2K7 (human) = MAP2K7 (human) (UniProt O14733)
[1] = tested on: FLT3 (human), P36888 [R834Q]
ULK2 (human) = ULK2 (human) (UniProt Q8IYT8)
MAP2K5 (human) = MAP2K5 (human) (UniProt Q13163)
TEC (human) = TEC (human) (UniProt P42680)
PIP5K1A (human) = PIP5K1A (human) (UniProt Q99755)
PIK3CB (human) = PIK3CB (human) (UniProt P42338)
ACVRL1 (human) = ACVRL1 (human) (UniProt P37023)
ROCK1 (human) = ROCK1 (human) (UniProt Q13464)
Sequence of ROCK1 (human) (Q13464 whole entry, looked up): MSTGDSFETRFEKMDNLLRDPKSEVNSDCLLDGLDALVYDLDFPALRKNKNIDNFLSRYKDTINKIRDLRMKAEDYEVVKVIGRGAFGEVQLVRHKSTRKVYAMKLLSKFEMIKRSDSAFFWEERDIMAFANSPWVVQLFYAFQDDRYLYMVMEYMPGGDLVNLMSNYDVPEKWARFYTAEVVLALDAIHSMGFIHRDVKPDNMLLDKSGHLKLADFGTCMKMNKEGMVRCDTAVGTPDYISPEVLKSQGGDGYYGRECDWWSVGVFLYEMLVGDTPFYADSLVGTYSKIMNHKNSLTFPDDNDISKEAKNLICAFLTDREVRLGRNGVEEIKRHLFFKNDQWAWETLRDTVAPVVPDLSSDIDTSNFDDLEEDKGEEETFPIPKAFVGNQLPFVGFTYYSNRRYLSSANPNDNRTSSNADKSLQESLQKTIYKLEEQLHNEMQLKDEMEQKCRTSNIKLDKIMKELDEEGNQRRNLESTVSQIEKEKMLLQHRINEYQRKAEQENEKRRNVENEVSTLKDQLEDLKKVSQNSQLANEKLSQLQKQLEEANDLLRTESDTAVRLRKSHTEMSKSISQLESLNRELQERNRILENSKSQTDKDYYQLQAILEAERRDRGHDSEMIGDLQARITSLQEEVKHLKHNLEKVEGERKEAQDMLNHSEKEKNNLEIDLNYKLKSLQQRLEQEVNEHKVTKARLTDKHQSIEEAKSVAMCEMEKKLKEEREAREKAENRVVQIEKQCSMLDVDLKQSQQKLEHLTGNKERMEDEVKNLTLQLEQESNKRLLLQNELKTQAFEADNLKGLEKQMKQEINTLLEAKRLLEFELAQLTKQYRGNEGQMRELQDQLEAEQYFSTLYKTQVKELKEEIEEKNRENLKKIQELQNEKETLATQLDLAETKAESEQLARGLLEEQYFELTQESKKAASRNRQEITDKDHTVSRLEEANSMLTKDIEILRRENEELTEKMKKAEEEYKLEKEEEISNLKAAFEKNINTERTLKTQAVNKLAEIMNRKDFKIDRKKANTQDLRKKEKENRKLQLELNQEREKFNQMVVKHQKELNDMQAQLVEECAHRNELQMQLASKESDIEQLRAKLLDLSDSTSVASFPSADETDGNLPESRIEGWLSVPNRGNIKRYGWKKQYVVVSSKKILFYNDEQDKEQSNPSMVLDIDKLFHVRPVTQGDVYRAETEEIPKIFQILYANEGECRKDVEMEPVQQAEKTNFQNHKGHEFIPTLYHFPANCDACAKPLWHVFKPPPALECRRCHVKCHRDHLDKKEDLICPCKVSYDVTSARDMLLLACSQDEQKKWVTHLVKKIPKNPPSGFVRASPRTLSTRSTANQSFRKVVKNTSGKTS

MAP3K11 (human) = MAP3K11 (human) (UniProt Q16584)
STK16 (human) = STK16 (human) (UniProt O75716)
SNRK (human) = SNRK (human) (UniProt Q9NRH2)
ABL2 (human) = ABL2 (human) (UniProt P42684)
DSTYK (human) = DSTYK (human) (UniProt Q6XUX3)
MAP2K4 (human) = MAP2K4 (human) (UniProt P45985)
PHKG1 (human) = PHKG1 (human) (UniProt Q16816)
TTK (human) = TTK (human) (UniProt P33981)
ULK1 (human) = ULK1 (human) (UniProt O75385)
NUAK2 (human) = NUAK2 (human) (UniProt Q9H093)
DCLK3 (human) = DCLK3 (human) (UniProt Q9C098)
TNNI3K (human) = TNNI3K (human) (UniProt Q59H18)

Sequence of LATS1 (human) (O95835 whole entry, looked up): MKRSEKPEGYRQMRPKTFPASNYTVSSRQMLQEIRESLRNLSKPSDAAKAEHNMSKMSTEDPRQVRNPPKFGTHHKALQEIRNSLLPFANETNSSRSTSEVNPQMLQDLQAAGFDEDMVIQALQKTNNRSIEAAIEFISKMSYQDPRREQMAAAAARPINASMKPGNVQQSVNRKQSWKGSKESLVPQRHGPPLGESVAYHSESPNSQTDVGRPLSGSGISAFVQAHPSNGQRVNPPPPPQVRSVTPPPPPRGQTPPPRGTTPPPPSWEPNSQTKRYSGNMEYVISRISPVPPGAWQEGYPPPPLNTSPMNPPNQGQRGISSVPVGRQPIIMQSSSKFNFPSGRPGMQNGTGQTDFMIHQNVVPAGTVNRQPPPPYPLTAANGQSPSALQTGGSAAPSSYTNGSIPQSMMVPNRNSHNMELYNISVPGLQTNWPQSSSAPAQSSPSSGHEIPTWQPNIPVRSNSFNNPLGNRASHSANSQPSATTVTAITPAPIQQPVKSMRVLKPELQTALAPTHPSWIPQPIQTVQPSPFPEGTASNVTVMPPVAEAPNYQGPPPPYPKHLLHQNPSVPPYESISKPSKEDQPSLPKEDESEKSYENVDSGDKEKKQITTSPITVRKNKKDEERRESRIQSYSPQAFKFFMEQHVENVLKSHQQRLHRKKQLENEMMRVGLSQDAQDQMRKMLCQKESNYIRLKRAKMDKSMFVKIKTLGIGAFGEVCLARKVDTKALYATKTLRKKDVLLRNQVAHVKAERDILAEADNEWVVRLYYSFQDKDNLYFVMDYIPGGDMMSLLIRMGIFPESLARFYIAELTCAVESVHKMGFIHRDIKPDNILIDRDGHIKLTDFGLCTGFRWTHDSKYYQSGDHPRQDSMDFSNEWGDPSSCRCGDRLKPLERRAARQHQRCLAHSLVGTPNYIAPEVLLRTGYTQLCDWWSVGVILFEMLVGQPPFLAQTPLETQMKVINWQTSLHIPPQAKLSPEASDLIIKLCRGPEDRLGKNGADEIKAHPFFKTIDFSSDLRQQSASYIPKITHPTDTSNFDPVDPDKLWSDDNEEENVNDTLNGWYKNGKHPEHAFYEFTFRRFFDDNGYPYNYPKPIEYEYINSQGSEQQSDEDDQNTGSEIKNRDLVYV

Compound: C[C@@H](Oc1cc(-c2cnn(C3CCNCC3)c2)cnc1N)c1c(Cl)ccc(F)c1Cl
- kinase still bound, per cent of control (TBK1 (human)): 8.7%
- kinase still bound, per cent of control (CDC42BPA (human)): 43%
- kinase still bound, per cent of control (LATS1 (human)): 100%
- kinase still bound, per cent of control (PIK3C2B (human)): 46%
- kinase still bound, per cent of control (LATS2 (human)): 56%
- kinase still bound, per cent of control (RPS6KA6 KD2 (human)): 35%
- kinase still bound, per cent of control (EPHA5 (human)): 1.8%
- kinase still bound, per cent of control (GRK7 (human)): 42%
- kinase still bound, per cent of control (DYRK2 (human)): 9.6%
- kinase still bound, per cent of control (EPHA2 (human)): 1.5%
- kinase still bound, per cent of control (EPHA1 (human)): 0.85%
- kinase still bound, per cent of control (BRAF (human)): 53%
- kinase still bound, per cent of control (RPS6KA4 KD1 (human)): 100%
- kinase still bound, per cent of control (EPHA7 (human)): 0.3%
- kinase still bound, per cent of control (PDGFRB (human)): 44%
- kinase still bound, per cent of control (PKMYT1 (human)): 100%
- kinase still bound, per cent of control (AKT3 (human)): 100%
- kinase still bound, per cent of control (STK32C (human)): 100%
- kinase still bound, per cent of control (MAP2K7 (human)): 83%
- kinase still bound, per cent of control [1]: 25%
- kinase still bound, per cent of control (ULK2 (human)): 4.7%
- kinase still bound, per cent of control (MAP2K5 (human)): 54%
- kinase still bound, per cent of control (TEC (human)): 100%
- kinase still bound, per cent of control (PIP5K1A (human)): 0.1%
- kinase still bound, per cent of control (PIK3CB (human)): 99%
- kinase still bound, per cent of control (ACVRL1 (human)): 45%
- kinase still bound, per cent of control (ROCK1 (human)): 4%
- kinase still bound, per cent of control (MAP3K11 (human)): 81%
- kinase still bound, per cent of control (STK16 (human)): 63%
- kinase still bound, per cent of control (SNRK (human)): 100%
- kinase still bound, per cent of control (ABL2 (human)): 0.85%
- kinase still bound, per cent of control (DSTYK (human)): 1.6%
- kinase still bound, per cent of control (MAP2K4 (human)): 93%
- kinase still bound, per cent of control (PHKG1 (human)): 100%
- kinase still bound, per cent of control (TTK (human)): 50%
- kinase still bound, per cent of control (ULK1 (human)): 1%
- kinase still bound, per cent of control (NUAK2 (human)): 5.5%
- kinase still bound, per cent of control (DCLK3 (human)): 42%

Compound: CS(=O)(=O)N1CCN(Cc2cc3nc(-c4cccc5[nH]ncc45)nc(N4CCOCC4)c3s2)CC1
- kinase still bound, per cent of control (TBK1 (human)): 100%
- kinase still bound, per cent of control (CDC42BPA (human)): 100%
- kinase still bound, per cent of control (LATS1 (human)): 100%
- kinase still bound, per cent of control (PIK3C2B (human)): 22%
- kinase still bound, per cent of control (LATS2 (human)): 100%
- kinase still bound, per cent of control (TNNI3K (human)): 100%
- kinase still bound, per cent of control (RPS6KA6 KD2 (human)): 100%
- kinase still bound, per cent of control (EPHA5 (human)): 100%
- kinase still bound, per cent of control (GRK7 (human)): 100%
- kinase still bound, per cent of control (DYRK2 (human)): 100%
- kinase still bound, per cent of control (EPHA2 (human)): 100%
- kinase still bound, per cent of control (EPHA1 (human)): 100%
- kinase still bound, per cent of control (BRAF (human)): 100%
- kinase still bound, per cent of control (RPS6KA4 KD1 (human)): 100%
- kinase still bound, per cent of control (EPHA7 (human)): 100%
- kinase still bound, per cent of control (PDGFRB (human)): 100%
- kinase still bound, per cent of control (PKMYT1 (human)): 100%
- kinase still bound, per cent of control (AKT3 (human)): 100%
- kinase still bound, per cent of control (STK32C (human)): 100%
- kinase still bound, per cent of control (ULK2 (human)): 100%
- kinase still bound, per cent of control (TEC (human)): 100%
- kinase still bound, per cent of control (PIP5K1A (human)): 100%
- kinase still bound, per cent of control (PIK3CB (human)): 0.1%
- kinase still bound, per cent of control (ACVRL1 (human)): 100%
- kinase still bound, per cent of control (ROCK1 (human)): 100%
- kinase still bound, per cent of control (STK16 (human)): 100%
- kinase still bound, per cent of control (ABL2 (human)): 100%
- kinase still bound, per cent of control (MAP2K4 (human)): 100%
- kinase still bound, per cent of control (PHKG1 (human)): 100%
- kinase still bound, per cent of control (TTK (human)): 100%
- kinase still bound, per cent of control (ULK1 (human)): 100%
- kinase still bound, per cent of control (NUAK2 (human)): 100%
- kinase still bound, per cent of control (DCLK3 (human)): 100%

Compound: COc1cc(N2CCN(C)CC2)ccc1Nc1ncc2c(n1)N(C)c1ccccc1C(=O)N2C
- kinase still bound, per cent of control (TBK1 (human)): 100%
- kinase still bound, per cent of control (CDC42BPA (human)): 100%
- kinase still bound, per cent of control (LATS1 (human)): 100%
- kinase still bound, per cent of control (PIK3C2B (human)): 100%
- kinase still bound, per cent of control (LATS2 (human)): 100%
- kinase still bound, per cent of control (TNNI3K (human)): 100%
- kinase still bound, per cent of control (RPS6KA6 KD2 (human)): 4.9%
- kinase still bound, per cent of control (EPHA5 (human)): 100%
- kinase still bound, per cent of control (GRK7 (human)): 100%
- kinase still bound, per cent of control (DYRK2 (human)): 100%
- kinase still bound, per cent of control (EPHA2 (human)): 100%
- kinase still bound, per cent of control (EPHA1 (human)): 100%
- kinase still bound, per cent of control (BRAF (human)): 100%
- kinase still bound, per cent of control (RPS6KA4 KD1 (human)): 100%
- kinase still bound, per cent of control (EPHA7 (human)): 100%
- kinase still bound, per cent of control (PDGFRB (human)): 100%
- kinase still bound, per cent of control (PKMYT1 (human)): 100%
- kinase still bound, per cent of control (AKT3 (human)): 100%
- kinase still bound, per cent of control (STK32C (human)): 100%
- kinase still bound, per cent of control (ULK2 (human)): 0.5%
- kinase still bound, per cent of control (TEC (human)): 100%
- kinase still bound, per cent of control (PIP5K1A (human)): 100%
- kinase still bound, per cent of control (PIK3CB (human)): 100%
- kinase still bound, per cent of control (ACVRL1 (human)): 100%
- kinase still bound, per cent of control (ROCK1 (human)): 100%
- kinase still bound, per cent of control (MAP3K11 (human)): 100%
- kinase still bound, per cent of control (STK16 (human)): 100%
- kinase still bound, per cent of control (ABL2 (human)): 100%
- kinase still bound, per cent of control (MAP2K4 (human)): 100%
- kinase still bound, per cent of control (PHKG1 (human)): 100%
- kinase still bound, per cent of control (TTK (human)): 26%
- kinase still bound, per cent of control (ULK1 (human)): 2.9%
- kinase still bound, per cent of control (NUAK2 (human)): 14%
- kinase still bound, per cent of control (DCLK3 (human)): 16%

Compound: C=CC(=O)Nc1ccc(CN(C(=O)Nc2c(Cl)c(OC)cc(OC)c2Cl)c2cc(Nc3ccc(N4CCN(C)CC4)cc3)ncn2)cc1
- kinase still bound, per cent of control (CDC42BPA (human)): 100%
- kinase still bound, per cent of control (LATS1 (human)): 100%
- kinase still bound, per cent of control (PIK3C2B (human)): 100%
- kinase still bound, per cent of control (LATS2 (human)): 100%
- kinase still bound, per cent of control (TNNI3K (human)): 100%
- kinase still bound, per cent of control (RPS6KA6 KD2 (human)): 100%
- kinase still bound, per cent of control (EPHA5 (human)): 100%
- kinase still bound, per cent of control (EPHA2 (human)): 100%
- kinase still bound, per cent of control (EPHA1 (human)): 100%
- kinase still bound, per cent of control (BRAF (human)): 100%
- kinase still bound, per cent of control (RPS6KA4 KD1 (human)): 100%
- kinase still bound, per cent of control (EPHA7 (human)): 100%
- kinase still bound, per cent of control (PDGFRB (human)): 0%
- kinase still bound, per cent of control (PKMYT1 (human)): 100%
- kinase still bound, per cent of control (AKT3 (human)): 100%
- kinase still bound, per cent of control (STK32C (human)): 100%
- kinase still bound, per cent of control (ULK2 (human)): 100%
- kinase still bound, per cent of control (TEC (human)): 7.2%
- kinase still bound, per cent of control (PIP5K1A (human)): 100%
- kinase still bound, per cent of control (PIK3CB (human)): 100%
- kinase still bound, per cent of control (ACVRL1 (human)): 100%
- kinase still bound, per cent of control (MAP3K11 (human)): 10%
- kinase still bound, per cent of control (STK16 (human)): 100%
- kinase still bound, per cent of control (ABL2 (human)): 9.1%
- kinase still bound, per cent of control (MAP2K4 (human)): 100%
- kinase still bound, per cent of control (PHKG1 (human)): 100%
- kinase still bound, per cent of control (TTK (human)): 100%
- kinase still bound, per cent of control (ULK1 (human)): 100%
- kinase still bound, per cent of control (NUAK2 (human)): 100%
- kinase still bound, per cent of control (DCLK3 (human)): 100%
